Test results published in publication PMC9017349, “Spiropyrimidinetriones: a Class of DNA Gyrase Inhibitors with Activity against Mycobacterium tuberculosis and without Cross-Resistance to Fluoroquinolones” (Antimicrobial Agents and Chemotherapy, 2022).
Converted amounts (≈) assume the structure as drawn.

Assays:
[1] = system: M. tuberculosis DNA gyrase GyrA, A90V; format: cell-based, Mycobacterium tuberculosis
[2] = system: M. tuberculosis DNA gyrase GyrA, G88C; format: cell-based, Mycobacterium tuberculosis
[3] = system: M. tuberculosis ATCC 35826 (CS resistance); assay: microbe, parasite or virus in culture; format: cell-based; settings: Mycobacterium tuberculosis, ATCC35826
[4] = system: M. tuberculosis ATCC 35838 (Rif resistance); assay: microbe, parasite or virus in culture; format: cell-based; settings: Mycobacterium tuberculosis, ATCC35838
[5] = system: M. tuberculosis ATCC 3583 (INH resistance); assay: microbe, parasite or virus in culture; format: cell-based; settings: Mycobacterium tuberculosis, ATCC3583, read-out: MIC90, ATCC 3583 (INH resistance)
[6] = system: M. tuberculosis QcrB D317T; format: cell-based, Mycobacterium tuberculosis
[7] = system: M. tuberculosis MmpL3, G253E; format: cell-based, Mycobacterium tuberculosis
[8] = system: M. tuberculosis MmpL3, G758A/G253E; format: cell-based, Mycobacterium tuberculosis

| SMILES | MIC90, DNA gyrase GyrA, A90V [1] [µM] | MIC90, DNA gyrase GyrA, G88C [2] [µM] | MIC90 [3] [µM] | MIC90 [4] [µM] | MIC90 [5] [µM] | MIC90, QcrB D317T [6] [µM] | MIC90, MmpL3, G253E [7] [µM] | MIC90, MmpL3, G758A/G253E [8] [µM] |
| --- | --- | --- | --- | --- | --- | --- | --- | --- |
| Cc1nnc(-c2noc3c(F)c4c(cc23)CC2(C(=O)NC(=O)NC2=O)[C@H]2[C@H](C)O[C@H](C)CN42)o1 [Compound 22] | 0.98 (≈ 0.461 µg/mL) | 0.98 (≈ 0.461 µg/mL) | – | – | – | – | – | – |
| NNC(=O)c1ccncc1 [Isoniazid, isoniazid] | – | – | 3.4 (≈ 0.466 µg/mL) | 7.8 (≈ 1.07 µg/mL) | > 62.5 | – | – | – |
| C[C@H]1COc2c(N3CCN(C)CC3)c(F)cc3c(=O)c(C(=O)O)cn1c23 [Levofloxacin] | 16 (≈ 5.78 µg/mL) | 2.0 (≈ 0.723 µg/mL) | – | – | – | – | – | – |
| COc1c(N2C[C@@H]3CCCN[C@@H]3C2)c(F)cc2c(=O)c(C(=O)O)cn(C3CC3)c12 [Moxifloxacin, moxifloxacin] | 7.8 (≈ 3.13 µg/mL) | 0.49 (≈ 0.197 µg/mL) | – | – | – | – | – | – |
| CO[C@H]1/C=C/O[C@@]2(C)Oc3c(C)c(O)c4c(O)c(c(/C=N/N5CCN(C)CC5)c(O)c4c3C2=O)NC(=O)/C(C)=C\C=C\[C@H](C)[C@H](O)[C@@H](C)[C@@H](O)[C@@H](C)[C@H](OC(C)=O)[C@@H]1C [Rif, rifampicin] | 0.0023 (≈ 0.00189 µg/mL) | 0.0023 (≈ 0.00189 µg/mL) | 0.001 (≈ 0.000823 µg/mL) | > 0.1 | 0.006 (≈ 0.00494 µg/mL) | 0.0046 (≈ 0.00379 µg/mL) | 0.001 (≈ 0.000823 µg/mL) | 0.001 (≈ 0.000823 µg/mL) |
| CC(C)=CCC/C(C)=C/CNCCNC1C2CC3CC(C2)CC1C3 (stereo not shown) [SQ109] | – | – | – | – | – | – | 2.0 (≈ 0.661 µg/mL) | 2.0 (≈ 0.661 µg/mL) |
